{"source": "patent US20230263900A1", "about": "“DENDRIMER-DRUG CONJUGATE” (priority 2020, published 2023)", "key": {"[1]": {"test": "in vivo", "method": "The ability to deliver dendrimer-drug conjugates via the pulmonary route was evaluated.\nMale Sprague Dawley (SD) rats (8-9 weeks, 270-320 g) were obtained from Monash Animal Services (VIC, Australia). Female F344 rats (8-10 weeks) were supplied by Animal Resources Centre (Perth, Australia).\nBlood samples and urine were then collected for up to 5 days. […] At the completion of the study, bronchoalveolar lavage fluid (BALF), lungs, liver, heart, spleen, kidneys and pancreas were collected from rats for biodistribution analysis. BALF was collected via the intratracheal perfusion of 3×5 ml saline Alveolar macrophages were isolated from BALF via centrifugation at 600×g for 10 mins. […] Plasma, urine, feces, and organs were analysed for radiolabel via liquid scintillation counting. Total doxorubicin in plasma, BALF and lung tissue in pulmonary dosed rats was analysed via a fluorescence HPLC (Kaminskas L M, et al, Nanomedicine. 2012 January; 8(1):103-11).\nData are represented as mean±s.d. (n=3-7)."}, "[2]": {"settings": "cited from earlier work"}, "[3]": {"parameters": "species or system rats", "settings": "rat, in vivo", "method": "The dendrimer BHALys[Lys]2[Lys]4[Lys]8[Lys]16(PEG2000)32 was constituted to 10 mg/ml in PBS and stored at −20° C. until required. The construction of the dendrimer was as described previously (Kaminskas L M, et al Mol Pharm. 2008 May-June; 5(3):449-63).\nRats were intravenously administered 1 ml of dendrimer in sterile saline over 2 mins. […] For the pharmacokinetic evaluation of dendrimer administered to the lungs as an aerosolized dose, rats were cannulated only via the right carotid artery. Rats were administered 1 mg of dendrimer in 100 μl saline via intratracheal insertion of the Penn Century micro spray aerosol device to the lungs of rats under isoflurane anaesthesia. […] Plasma, urine, feces and lungs were analysed for radiolabel via liquid scintillation counting\n(n=4-5 rats) and data is normalized to 5 mg/kg dendrimer. […] Data in Figure B represents mean±s.d. (n=4 rats) 7 days after the pulmonary dose."}, "[4]": {"test": "Release of Remdesivir in PBS buffer (Release Method 1)", "format": "physicochemical", "settings": "PBS buffer with 10% v/v DMSO, pH 7.4, 37° C.", "method": "Release Method 1: An accurately weighed amount of the Remdesivir-dendrimer (10 mg) construct was dissolved in pH 7.4 PBS buffer:DMSO (9:1 v/v) and the volume made up to 20.0 mL in a volumetric flask to give a 0.5 mg/mL stock solution. The stock solution was aliquoted into several 2 mL screw-cap vials, the caps fitted and the vials heated at 37° C. The aliquoted solutions were analyzed at different time points by HPLC (HPLC Method 3). The concentration of Remdesivir RHa-1 was calculated by comparing the area under the peak associated with Remdesivir RHa-1 to a standard curve in MeCN:DMSO (9:1, v/v). The percentage of Remdesivir RHa-1 released is the percentage of available Remdesivir RHa-1 based on the loading of the construct as determined by ^1H NMR analysis (API Loading Method 1).\nThe extent to which the Remdesivir RHa-1 was released over time in PBS buffer (with 10% v/v DMSO) (pH 7.4) at 37° C. was determined for 5 constructs, RHa-17, RHa-15, RHa-11, RHa-5 and RHa-3 (Release Method 1) over 120 hours.\nTrace amounts of other components were also observed (presumed to be degradation products of Remdesivir RHa-1). The area under the resolvable (separated) peaks associated with these degradants was also added to the peak area associated with released Remdesivir RHa-1.\nBHALys [Lys]2[Lys]4[Lys]8[Lys]16[Lys]32[(α-NH-6N-TDA-Remdesivir)32(ε-NH-COPEG2000)32] RHa-5 contained 1.77% free Remdesivir RHa-1 at t=0 min. The value of released Remdesivir RHa-1 shown in FIG. 3 has been adjusted to take this into account."}, "[5]": {"test": "Solubility studies", "format": "physicochemical", "method": "The solubility of BHALys[Lys]2[Lys]4[Lys]8[Lys]16[Lys]32[(α-NH-3′ O-Glu-Remdesivir)32(ε-NH-COPEG2000)32] RHa-3 in water was determined to be ≥200 mg/mL (or ≥43.6 mg/mL Remdesivir RHa-1) by adding water (250 μL) to 50.0 mg of BHALys [Lys]2[Lys]4[Lys]8[Lys]16[Lys]32[(α-NH-3′ O-Glu-Remdesivir)32(ε-NH-COPEG2000)32] and swirling briefly. After 2 min, the resulting solution was visually inspected for particulates and found to be a clear solution (see FIG. 2). Solutions shown are 40 mg/ml Remdesivir equivalents (equivalent to 200 mg/ml of conjugate RHa-3).\nThe solubility of BHALys[Lys]2[Lys]4[Lys]8[Lys]16[Lys]32[(α-NH-6N-TDA-Remdesivir)32(ε-NH-COPEG2000)32] RHa-5, in EtOH:Water (1:9 v/v) was determined to be ≥543 mg/mL (or ≥107 mg/mL Remdesivir RHa-1) by adding water EtOH:Water (1:9 v/v, 400 μL) to 380 mg of RHa-5. The mixture was swirled briefly and left to stand at rt. After 1.5 h the resulting solution (volume recorded=700 μL) was visually inspected for particulates and found to be a clear solution.\nThe solubility of BHALys[Lys]2[Lys]4[Lys]8[Lys]16[Lys]32[(α-NH-6N-TDA-Remdesivir)32(ε-NH-COPEG1000)32] RHa-17 in EtOH:Water (1:9 v/v) was determined to be ≥354* mg/mL (or ≥85 mg/mL Remdesivir RHa-1) by adding EtOH:Water (1:9 v/v, 958 μL) portionwise to 525 mg of RHa-17, over a period of 1.5 h with intermittent swirling. The resulting solution was visually inspected for particulates and found to be a clear solution.\n(*Total volume not recorded. Assumes 1 mg construct contributes to 1 μL of final solution (i.e., total volume of final solution=1483 μL))."}, "[6]": {"test": "Viscosity measurements (Viscosity Method 1)", "format": "physicochemical", "settings": "50 mg/mL Remdesivir equivalents in EtOH: Water (1:9 v/v)", "method": "Viscosities were measured on Anton Paar ViscoQC300 Viscometer using CC-12 cup.\nViscosity Method 1: A reference standard solution (Standard Type: RT500, CAS No. 63148-62-9, Paragon Scientific Ltd) was first recorded and found to be within the range of reported value (at 20° C.: found 556.6 cP, theoretical 551.0 cP; at 25° C.: found 503.3 cP, theoretical 498.6 cP). Accurately weighed quantities of respective conjugates were dissolved in EtOH:Water […] to make a 50 mg/mL Remdesivir equivalent solution (total volume 2.30-2.40 mL) and the viscosity of the solution was recorded at 20° C. and 25° C.\nViscosities of 2 formulations containing either RHa-5 or RHa-17 in EtOH: Water (1:9 v/v) were measured using Viscosity Method 1"}, "[7]": {"settings": "male, Sprague-Dawley, rat, in vivo"}, "[8]": {"settings": "male, Sprague-Dawley, rat, in vivo, inhaled or intranasal, 0.6 mg"}}}
{"molecule": "COc1cccc2c1C(=O)c1c(O)c3c(c(O)c1C2=O)C[C@@](O)(C(=O)CO)C[C@@H]3O[C@H]1C[C@H](N)[C@H](O)[C@H](C)O1", "note": "[Doxorubicin, doxorubicin]", "values": [{"measurement": "Fabs 0-∞, doxorubicin", "setting": "[1]; [7]", "value": "83 ± 9", "unit": "%"}, {"measurement": "Kel, doxorubicin", "setting": "[1]; [7]", "value": "0.132 ± 0.010 ^−h"}, {"measurement": "Tmax", "setting": "[1]; [8]", "value": "6 ± 3", "unit": "min"}, {"measurement": "half-life", "setting": "[1]; [8]", "value": "5 ± 0.4", "unit": "h"}, {"measurement": "AUC", "setting": "[1]; male, Sprague-Dawley, rat, in vivo, iv, 0.75 mg/kg", "value": "210 ± 40", "unit": "ng·h/mL"}, {"measurement": "AUC", "setting": "[1]; male, Sprague-Dawley, rat, plasma, inhaled or intranasal, 0.6 mg", "value": "170 ± 20", "unit": "ng·h/mL"}, {"measurement": "Kel, doxorubicin", "setting": "[1]; rats, intravenous, doxorubicin normalized to 0.75 mg/kg", "value": "0.518 ± 0.312 ^−h"}]}
{"molecule": "N#C[C@@]1(c2ccc3c(N)ncnn23)O[C@H](CO)[C@@H](O)[C@H]1O", "note": "[GS-441524]", "values": [{"measurement": "AUC0-24", "setting": "[2]; IV infusion of 200 mg Remdesivir, healthy human subjects", "value": 7.7, "unit": "µM·h"}, {"measurement": "Cmax", "setting": "[2]; after 200 mg dose of Remdesivir", "value": 152, "unit": "ng/mL"}, {"measurement": "Peak plasma concentration", "setting": "[2]; after 30 minutes infusion of Remdesivir", "value": "about 150 ng/ml"}]}
{"molecule": "BHALys[Lys]2[Lys]4[Lys]8[Lys]16(PEG2000)32", "values": [{"measurement": "Bioavailability after lung delivery", "setting": "[3]", "value": "2.4±3.3", "unit": "%"}]}
{"molecule": "BHALys[Lys]2[Lys]4[Lys]8[Lys]16[Lys]32[(α-NH-3′O-DGA-Remdesivir)32(ε-NH-COPEG2000)32] [RHa-11]", "values": [{"measurement": "Approx. Time taken for 50% Remdesivir release", "setting": "[4]", "value": "~3", "unit": "h"}]}
{"molecule": "BHALys[Lys]2[Lys]4[Lys]8[Lys]16[Lys]32[(α-NH-3′O-Glu-Remdesivir)32(ε-NH-COPEG2000)32] [RHa-3]", "values": [{"measurement": "Solubility in water", "setting": "[5]; water, conjugate mass, visual inspection after 2 min", "value": "≥ 200", "unit": "mg/mL"}, {"measurement": "Solubility in water, as Remdesivir RHa-1", "setting": "[5]; water, expressed as Remdesivir RHa-1", "value": "≥ 43.6", "unit": "mg/mL"}, {"measurement": "Approx. Time taken for 50% Remdesivir release", "setting": "[4]", "value": ">120", "unit": "h"}]}
{"molecule": "BHALys[Lys]2[Lys]4[Lys]8[Lys]16[Lys]32[(α-NH-6N-TDA-Remdesivir)32(ε-NH-COPEG1000)32] [RHa-17]", "values": [{"measurement": "Solubility in EtOH:Water (1:9 v/v)", "setting": "[5]; EtOH:Water (1:9 v/v), conjugate mass, rt", "value": "≥ 354", "unit": "mg/mL"}, {"measurement": "Solubility in EtOH:Water (1:9 v/v), as Remdesivir RHa-1", "setting": "[5]; EtOH:Water (1:9 v/v), expressed as Remdesivir RHa-1", "value": "≥ 85", "unit": "mg/mL"}, {"measurement": "Approx. Time taken for 50% Remdesivir release", "setting": "[4]", "value": "~48", "unit": "h"}, {"measurement": "Viscosity at 20° C.", "setting": "[6]", "value": 38.99, "unit": "cP"}, {"measurement": "Viscosity at 25° C.", "setting": "[6]", "value": 29.32, "unit": "cP"}]}
